Activity calls are given as the source filed them. No cut-off for these calls is given here.
Experiments:
Type in all cases: functional, cell-based
[1] = biological target: T1, Peroxisome proliferator-activated receptor alpha (Homo sapiens) (UniProt Q07869); test: Agonist activity at human recombinant PPARalpha expressed in CHO cells cotransfected with pGL3-PPRE3-TK-luc reporter assessed as beta-galactosidase activity at 20 uM after 24 hrs by luciferase based transactivation assay
T1 sequence (whole entry): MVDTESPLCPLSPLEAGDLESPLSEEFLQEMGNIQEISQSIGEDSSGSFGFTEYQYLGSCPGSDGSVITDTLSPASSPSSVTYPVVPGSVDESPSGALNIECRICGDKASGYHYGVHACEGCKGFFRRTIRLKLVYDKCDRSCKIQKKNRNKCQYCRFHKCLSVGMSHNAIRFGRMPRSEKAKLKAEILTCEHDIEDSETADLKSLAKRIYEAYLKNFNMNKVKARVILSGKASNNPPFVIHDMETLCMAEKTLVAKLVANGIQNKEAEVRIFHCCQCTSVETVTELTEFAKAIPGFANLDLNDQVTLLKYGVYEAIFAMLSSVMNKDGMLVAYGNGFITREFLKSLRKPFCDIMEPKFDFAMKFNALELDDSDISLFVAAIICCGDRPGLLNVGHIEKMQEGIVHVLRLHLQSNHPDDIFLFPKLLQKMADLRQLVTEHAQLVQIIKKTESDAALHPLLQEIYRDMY

[2] = biological target: T2, Peroxisome proliferator-activated receptor delta (Homo sapiens) (UniProt Q03181); test: Agonist activity at human recombinant PPARbeta expressed in CHO cells cotransfected with pGL3-PPRE3-TK-luc reporter assessed as beta-galactosidase activity at 20 uM after 24 hrs by luciferase based transactivation assay
T2 sequence (whole entry): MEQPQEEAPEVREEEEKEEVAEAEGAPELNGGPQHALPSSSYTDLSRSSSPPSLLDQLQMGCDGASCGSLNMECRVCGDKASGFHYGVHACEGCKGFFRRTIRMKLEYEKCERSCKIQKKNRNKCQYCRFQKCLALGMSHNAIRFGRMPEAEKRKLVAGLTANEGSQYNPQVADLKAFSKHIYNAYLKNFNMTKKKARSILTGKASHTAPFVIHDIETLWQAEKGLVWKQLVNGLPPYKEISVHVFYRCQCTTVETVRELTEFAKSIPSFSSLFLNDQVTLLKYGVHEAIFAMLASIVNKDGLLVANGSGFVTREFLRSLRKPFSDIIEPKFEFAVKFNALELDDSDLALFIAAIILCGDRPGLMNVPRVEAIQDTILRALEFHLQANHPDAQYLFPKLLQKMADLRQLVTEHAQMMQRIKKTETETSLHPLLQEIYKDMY

[3] = biological target: T3, Peroxisome proliferator-activated receptor gamma (Homo sapiens) (UniProt P37231); test: (§1) Agonist activity at human recombinant PPARgamma expressed in CHO cells cotransfected with pGL3-PPRE3-TK-luc reporter assessed as beta-galactosidase activity at after 24 hrs by luciferase based transactivation assay
T3 sequence (whole entry): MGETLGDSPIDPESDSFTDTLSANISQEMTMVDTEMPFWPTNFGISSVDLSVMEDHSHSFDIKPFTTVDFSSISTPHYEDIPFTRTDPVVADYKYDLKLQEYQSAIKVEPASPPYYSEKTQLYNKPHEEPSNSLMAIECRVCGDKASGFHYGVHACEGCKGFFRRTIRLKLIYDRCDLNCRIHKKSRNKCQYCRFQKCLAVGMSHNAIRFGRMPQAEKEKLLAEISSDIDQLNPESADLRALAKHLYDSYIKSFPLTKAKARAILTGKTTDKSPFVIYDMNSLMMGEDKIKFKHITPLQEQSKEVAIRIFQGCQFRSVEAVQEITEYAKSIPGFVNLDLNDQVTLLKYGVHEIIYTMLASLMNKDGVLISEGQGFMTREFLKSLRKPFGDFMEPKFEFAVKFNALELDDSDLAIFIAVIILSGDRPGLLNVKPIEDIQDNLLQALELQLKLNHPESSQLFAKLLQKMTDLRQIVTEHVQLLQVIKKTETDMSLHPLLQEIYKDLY

[4] = biological target: T4, Peroxisome proliferator-activated receptor gamma (Homo sapiens, UniProt P37231); test: as §1
T4 sequence (P37231 whole entry): T3 sequence (whole entry)

[5] = biological target: T3, Peroxisome proliferator-activated receptor gamma (Homo sapiens); test: Agonist activity at PPARgamma in human HepG2 cells assessed as up-regulation of PPARgamma mRNA expression by RT-PCR analysis
[6] = biological target: T3, Peroxisome proliferator-activated receptor gamma (Homo sapiens); test: Agonist activity at PPARgamma in human HepG2 cells assessed as downregulation of glucose-6-phosphatase mRNA at 0.5 to 12.5 uM by RT-PCR analysis
[7] = biological target: T3, Peroxisome proliferator-activated receptor gamma (Homo sapiens); test: Agonist activity at PPARgamma in human HepG2 cells assessed as downregulation of phosphoenolpyruvate carboxykinase mRNA at 0.5 to 12.5 uM by RT-PCR analysis
[8] = biological target: T3, Peroxisome proliferator-activated receptor gamma (Homo sapiens); test: Agonist activity at PPARgamma in human HepG2 cells assessed as change in stearoyl CoA desaturase 1 mRNA at 0.5 to 12.5 uM by RT-PCR analysis
[9] = biological target: T3, Peroxisome proliferator-activated receptor gamma (Homo sapiens); test: Agonist activity at PPARgamma in human HepG2 cells assessed as up-regulation of PPARgamma mRNA at 0.5 to 12.5 uM by RT-PCR analysis relative to control

| Structure (SMILES) | Activity [1] | Activity [2] | Activity [3] | EC50 [4] [µM] | Activity [5] | Activity [6] | Activity [7] | Activity [8] | fold change (FC) [9] |
| --- | --- | --- | --- | --- | --- | --- | --- | --- | --- |
| COc1cc(O)c2c(c1)[C@@H](O)[C@@]1(O)COC[C@H]1C2=O | inactive | inactive | inactive |  |  |  |  |  |  |
| COc1cc(O)c2c(c1)[C@@H](O)[C@@]13CO[C@@H](O)[C@@]1(O3)C2=O | inactive | inactive | inactive |  |  |  |  |  |  |
| CCCCCCCCC[C@H]1CC[C@H](O)/C=C/[C@H](O)CC(=O)O1 [SEIMATOPOLIDE B] | inactive | inactive |  | 11.1 |  |  |  |  |  |

Further lines, results first:

| Activity [1] | Activity [2] | Activity [3] | EC50 [4] [µM] | Activity [5] | Activity [6] | Activity [7] | Activity [8] | fold change (FC) [9] | Structure (SMILES) |
| --- | --- | --- | --- | --- | --- | --- | --- | --- | --- |
| inactive | inactive | inactive |  |  |  |  |  |  | COc1cc(O)c2c(c1)C(=O)c1cocc1C2=O |
| inactive | inactive |  | 1.15 | Dose-dependent effect | Active | Active | inactive | 2 | CCCCCCCCC[C@H]1C[C@@H](O)[C@H](O)/C=C/[C@H](O)CC(=O)O1 [SEIMATOPOLIDE A] |

— ChEMBL document CHEMBL2034890, “Polyhydroxylated macrolides from Seimatosporium discosioides and their effects on the activation of peroxisome proliferator-activated receptor gamma” (J Nat Prod, 2012)
